# Legend:
# A549 (lung cancer) = assay: In vitro cytotoxicity test (MTT) against human tumour cell line A549; type: cell-based; conditions: A549, 24 h contact, 48 h re-growth
# Procedure: (§1) Human tumour cell lines A549 (lung cancer), HCT-15 (colon cancer) and MCF-7 (breast cancer) have been obtained from the Developmental Therapeutics Program of the National Cancer Institute (Rockville, Md., USA). Cells were routinely grown with RPMI 1640 medium supplemented with 10% foetal calf serum, both obtained from Biochrom AG (Berlin, Germany). They were grown on Petri dishes (Nunc, Denmark) at 37° C. in a humidified atmosphere containing 5% CO2. Cells were replicated every 4 days and the medium changed once in-between.
# (§2) Cytotoxicity has been evaluated on exponentially growing cells grown for 24 h in presence of the compounds to be tested. Briefly, 4000 cells were seeded in 96-well plates with 200 μL of complete medium; 24 hours later the medium was supplemented with a series of different concentrations of compounds and the contact maintained for 24 h. Compounds were dissolved in pure water and sterilised using polycarbonate membrane filters of 0.22 μm (Millipore, Molsheim, France). The cells were then allowed to re-grow for 48 hours; viable and metabolically active cells were quantitatively estimated by coloration with the MTT dye (1-(4,5-dimethylthyazol-2-yl)-3,5-diphenylformazan), Sigma-Aldrich Chimie, Saint-Quentin-Fallavier, France). The amount of substance allowing a 50% decrease in cell numbers is indicative of the cytotoxicity and represents the IC50 of compound.
# HCT-15 (colon cancer) = assay: In vitro cytotoxicity test (MTT) against human tumour cell line HCT-15; type: cell-based; conditions: HCT-15, 24 h contact, 48 h re-growth
# Procedure: as §1, §2
# MCF-7 = assay: Cell cycle arrest, propidium iodide flow cytometry, MCF-7; type: cell-based, human
# Procedure: 10^6 Cells of A549, HCT-15 and MCF-7 cell lines have been seeded in Petri dishes with RPMI-1640 medium. 24 h later, SDD has been dissolved in water at a concentration of 20 μM and was directly added to the culture medium. Contact was maintained for 72 h. Then, cells have been detached by trypsinization, collected and rinsed by PBS and counted on hemocytometer. Cells were centrifuged for 5 min at 1500 rpm, then resuspended in a defined volume of PBS to obtain 2.5×10^6 cell/mL. 100 μL of cell suspension was digested to nuclei by trypsin for 10 min. Then, a solution containing trypsin inhibitor and RNAse was added to cell suspension and left for 10 min. Finally, cells were stained by propidium iodide and were analysed by flow-cytometry apparatus. Distribution of cells among the different phases of the cycle was determined by the procedure disclosed in: A detergent-trypsin method for preparation of nuclei for flow cytometric DNA analysis. Vindelov, L.; Christensen, I.; Nissen, N.; Cytometry (1983), 3, 323-327.
# • G0G1: cell in the phase of GOG1 • G2M: cells in the phase of G2M • S: cells in the phase of DNA synthesis • Sub G1: apoptotic cells • SUP G2M: diploidic cells
# female Swiss mice = assay: Acute systemic toxicity, main test, intravenous; type: in vivo, mouse
# Procedure: The SDD was administered by intravenous route at the dose of 50 mg/kg body weight to a group of 5 female Swiss mice. The experimental protocol was established from the International standard NF EN ISO 10993-11 concerning biological evaluation of medical devices: “Tests for systemic toxicity”.
# [1] = MCF-7, SDD 20 μM, 72 h, percentage of total cell population
# [2] = 50 mg/kg iv, 1 hour after administration
smiles,measurement,setting,value
"CCN1C[C@]2(COC)[C@H](O)C[C@H](OC)[C@]34C1[C@H]([C@H](OC)[C@H]23)[C@]1(OC(=O)CCCCCCC(=O)O[C@]23[C@H]5[C@@H](OC(=O)c6ccccc6)[C@](O)(C[C@H]5[C@@]56C7[C@@H]2[C@H](OC)[C@@H]5[C@](COC)(CN7CC)[C@H](O)C[C@@H]6OC)[C@@H](OC)[C@@H]3O)[C@H]2[C@@H](OC(=O)c3ccccc3)[C@](O)(C[C@H]24)[C@@H](OC)[C@@H]1O [SDD, bis[O-(14-benzoylaconine-8-yl)]-suberate]",IC50,A549 (lung cancer),18.7 µM
same,IC50,HCT-15 (colon cancer),3.7 µM
same,accumulation of cells in the G2M and S phases,"MCF-7; MCF-7, 20 μM",moderate accumulation
same,ALL %,MCF-7; [1],100%
same,G0G1 %,MCF-7; [1],58.73%
same,G2M %,MCF-7; [1],16.96%
same,S %,MCF-7; [1],21.44%
same,SUP G2M % (diploidic cells),MCF-7; [1],1.72%
same,SubG1 % (apoptotic cells),MCF-7; [1],2.05%
same,cell distribution in the cycle,"MCF-7; MCF-7, SDD concentration 5 times higher than IC50",not altered
same,"Percentage of survival cells, G0G1 %","MCF-7; MCF-7, SDD, survival cells",60.46%
same,"Percentage of survival cells, G2M %","MCF-7; MCF-7, SDD, survival cells",17.46%
same,"Percentage of survival cells, S %","MCF-7; MCF-7, SDD, survival cells",22.08%
same,mortality,"female Swiss mice; 50 mg/kg body weight iv, 5 female Swiss mice",No mortality
same,decrease of the righting reflex (animals affected),female Swiss mice; [2],2/5
same,decrease of the spontaneous activity (animals affected),female Swiss mice; [2],5/5
same,eyes partly closed (animals affected),female Swiss mice; [2],2/5
same,macroscopical examination: necrosis at the level of the tail (animals affected),"female Swiss mice; 50 mg/kg iv, end of the study",3/5
same,local finding at the tails,"female Swiss mice; 50 mg/kg iv, first day to fourteenth day",oedema at the level of the tails
same,body weight evolution,"female Swiss mice; 50 mg/kg iv, throughout the study",remained normal
same,LD50,"female Swiss mice; mouse, intravenous route",above 50 mg/kg of body weight

# From patent publication US8703790B2, “Bis [O-(14-benzoylaconine-8-yl)] esters” (priority 2008, dated 2014)
